According to ChEMBL document CHEMBL3885881, “DrugMatrix”:

Organism: Rattus norvegicus
Assay: DrugMatrix - Regimen: Daily Repeat
Type: toxicity, organism-based, Sprague-Dawley
Parameters: regimen Daily Repeat, gender Male, age 6-8 weeks
Conditions: in vivo, po, route oral GAVAGE, vehicle 100 % WATER; for ABSOLUTE BASOPHIL / ABSOLUTE EOSINOPHIL / ABSOLUTE LYMPHOCYTE / ABSOLUTE MONOCYTE / ABSOLUTE SEGMENTED NEUTROPHIL / BASOPHIL / EOSINOPHIL / ERYTHROCYTE COUNT / HEMATOCRIT / HEMOGLOBIN / LEUKOCYTE COUNT / LYMPHOCYTE / MEAN CORPUSCULAR HEMOGLOBIN / MEAN CORPUSCULAR HEMOGLOBIN CONCENTRATION / MEAN CORPUSCULAR VOLUME / MONOCYTE / NEUTROPHIL / NUCLEATED RED BLOOD CELLS / PLATELET COUNT: tissue Blood; for ALANINE AMINOTRANSFERASE / ALBUMIN / ALKALINE PHOSPHATASE / ASPARTATE AMINOTRANSFERASE / BLOOD UREA NITROGEN / CARBON DIOXIDE / CHLORIDE / CHOLESTEROL / CREATINE PHOSPHOKINASE / CREATININE / GLUCOSE / LACTATE DEHYDROGENASE / LIPASE / PHOSPHORUS / POTASSIUM / SODIUM / TOTAL BILIRUBIN / TOTAL PROTEIN / URIC ACID: tissue Plasma
[1] = 0 mg/kg, 72 h, dose level Control, time 3 day
[2] = 0 mg/kg, 120 h, dose level Control, time 5 day
[3] = 20 mg/kg, 72 h, dose level Low, time 3 day

CCCC(C)C1(CC)C(=O)NC(=O)NC1=O (centres undefined) [PENTOBARBITAL]
ABSOLUTE BASOPHIL [1]: 0 CELLS/uL
ABSOLUTE EOSINOPHIL [1]: 32.5 CELLS/uL
ABSOLUTE LYMPHOCYTE [1]: 9305.83 CELLS/uL
ABSOLUTE MONOCYTE [1]: 43.83 CELLS/uL
ABSOLUTE SEGMENTED NEUTROPHIL [1]: 817.83 CELLS/uL
BASOPHIL [1]: 0%
EOSINOPHIL [1]: 0.33%
ERYTHROCYTE COUNT [1]: 5.38 x10E6/uL
HEMATOCRIT [1]: 33.63%
HEMOGLOBIN [1]: 13.17 G/DL
LEUKOCYTE COUNT [1]: 10.2 x10E3/uL
LYMPHOCYTE [1]: 91.17%
MEAN CORPUSCULAR HEMOGLOBIN [1]: 24.5 pg
MEAN CORPUSCULAR HEMOGLOBIN CONCENTRATION [1]: 39.13 G/DL
MEAN CORPUSCULAR VOLUME [1]: 62.53 fL
MONOCYTE [1]: 0.5%
NEUTROPHIL [1]: 8%
NUCLEATED RED BLOOD CELLS [1]: 0.17 /100WBC
PLATELET COUNT [1]: 858 x10E3/uL
ALANINE AMINOTRANSFERASE [1]: 55.67 u/L
ALBUMIN [1]: 4.07 G/DL
ALKALINE PHOSPHATASE [1]: 337 u/L
ASPARTATE AMINOTRANSFERASE [1]: 84 u/L
BLOOD UREA NITROGEN [1]: 13.17 mg/dL
CARBON DIOXIDE [1]: 34.17 mmol/L
CHLORIDE [1]: 99.33 MEQ/L
CHOLESTEROL [1]: 78.83 mg/dL
CREATINE PHOSPHOKINASE [1]: 576.83 u/L
CREATININE [1]: 0.17 mg/dL
GLUCOSE [1]: 152.67 mg/dL
LACTATE DEHYDROGENASE [1]: 147.83 u/L
LIPASE [1]: 9.5 u/L
PHOSPHORUS [1]: 10.78 mg/dL
POTASSIUM [1]: 6.34 MEQ/L
SODIUM [1]: 144.12 MEQ/L
TOTAL BILIRUBIN [1]: 0.18 mg/dL
TOTAL PROTEIN [1]: 6.08 G/DL
URIC ACID [1]: 0.65 mg/dL
ABSOLUTE BASOPHIL [2]: 0 CELLS/uL
ABSOLUTE EOSINOPHIL [2]: 31.17 CELLS/uL
ABSOLUTE LYMPHOCYTE [2]: 7918.33 CELLS/uL
ABSOLUTE MONOCYTE [2]: 58.33 CELLS/uL
ABSOLUTE SEGMENTED NEUTROPHIL [2]: 725.5 CELLS/uL
BASOPHIL [2]: 0%
EOSINOPHIL [2]: 0.33%
ERYTHROCYTE COUNT [2]: 5.32 x10E6/uL
HEMATOCRIT [2]: 33.53%
HEMOGLOBIN [2]: 13.17 G/DL
LEUKOCYTE COUNT [2]: 8.73 x10E3/uL
LYMPHOCYTE [2]: 90.33%
MEAN CORPUSCULAR HEMOGLOBIN [2]: 24.82 pg
MEAN CORPUSCULAR HEMOGLOBIN CONCENTRATION [2]: 39.33 G/DL
MEAN CORPUSCULAR VOLUME [2]: 63.12 fL
MONOCYTE [2]: 0.67%
NEUTROPHIL [2]: 8.67%
NUCLEATED RED BLOOD CELLS [2]: 0 /100WBC
PLATELET COUNT [2]: 1144.83 x10E3/uL
ALANINE AMINOTRANSFERASE [2]: 60.5 u/L
ALBUMIN [2]: 3.97 G/DL
ALKALINE PHOSPHATASE [2]: 343.17 u/L
ASPARTATE AMINOTRANSFERASE [2]: 80.83 u/L
BLOOD UREA NITROGEN [2]: 15 mg/dL
CARBON DIOXIDE [2]: 31 mmol/L
CHLORIDE [2]: 99.75 MEQ/L
CHOLESTEROL [2]: 71.5 mg/dL
CREATINE PHOSPHOKINASE [2]: 237.17 u/L
CREATININE [2]: 0.17 mg/dL
GLUCOSE [2]: 137 mg/dL
LACTATE DEHYDROGENASE [2]: 146.17 u/L
LIPASE [2]: 11.5 u/L
PHOSPHORUS [2]: 10.13 mg/dL
POTASSIUM [2]: 6 MEQ/L
SODIUM [2]: 145 MEQ/L
TOTAL BILIRUBIN [2]: 0.13 mg/dL
TOTAL PROTEIN [2]: 5.82 G/DL
URIC ACID [2]: 0.62 mg/dL
ABSOLUTE BASOPHIL [3]: 0 CELLS/uL
ABSOLUTE EOSINOPHIL [3]: 0 CELLS/uL
ABSOLUTE LYMPHOCYTE [3]: 9302.33 CELLS/uL
ABSOLUTE MONOCYTE [3]: 108 CELLS/uL
ABSOLUTE SEGMENTED NEUTROPHIL [3]: 989.67 CELLS/uL
BASOPHIL [3]: 0%
EOSINOPHIL [3]: 0%
ERYTHROCYTE COUNT [3]: 5.3 x10E6/uL
HEMATOCRIT [3]: 32.83%
HEMOGLOBIN [3]: 12.6 G/DL
LEUKOCYTE COUNT [3]: 10.4 x10E3/uL
LYMPHOCYTE [3]: 88.33%
MEAN CORPUSCULAR HEMOGLOBIN [3]: 23.77 pg
MEAN CORPUSCULAR HEMOGLOBIN CONCENTRATION [3]: 38.37 G/DL
MEAN CORPUSCULAR VOLUME [3]: 61.97 fL
MONOCYTE [3]: 1.33%
NEUTROPHIL [3]: 10.33%
NUCLEATED RED BLOOD CELLS [3]: 0 /100WBC
PLATELET COUNT [3]: 1066.67 x10E3/uL
ALANINE AMINOTRANSFERASE [3]: 57.67 u/L
ALBUMIN [3]: 3.9 G/DL
ALKALINE PHOSPHATASE [3]: 334.33 u/L
ASPARTATE AMINOTRANSFERASE [3]: 90.67 u/L
BLOOD UREA NITROGEN [3]: 13.67 mg/dL
CARBON DIOXIDE [3]: 35.33 mmol/L
CHLORIDE [3]: 100 MEQ/L
CHOLESTEROL [3]: 80.67 mg/dL
CREATINE PHOSPHOKINASE [3]: 384.67 u/L
CREATININE [3]: 0.14 mg/dL
GLUCOSE [3]: 140 mg/dL
LACTATE DEHYDROGENASE [3]: 137 u/L
LIPASE [3]: 9 u/L
PHOSPHORUS [3]: 11.23 mg/dL
POTASSIUM [3]: 5.89 MEQ/L
SODIUM [3]: 147.3 MEQ/L
TOTAL BILIRUBIN [3]: 0.13 mg/dL
TOTAL PROTEIN [3]: 5.67 G/DL
URIC ACID [3]: 0.7 mg/dL
